Measurements published in patent US20110002897A1, “DIRECTED DIFFERENTIATION OF STEM CELLS” (Burnham Institute for Medical Research, priority 2009, published 2011).
Entries after “also recorded” stand apart in the source; their conditions may differ.

B1: MK: 13-kDa cysteine-rich secreted heparin-binding growth and differentiation factor; recombinant protein (Millipore) (protein, UniProt P21741 21-143, looked up)
Midkine: VAKKKDKVKKGGPGSECAEWAWGPCTPSSKDCGVGFREGTCGAQTQRIRCRVPCNWKKEFGADCKYKFENWGACDGGTGTKVRQGTLKKARYNAQCQETIRVTKPCTPKTKAKAKAKKGKGKD
B2: delta-like 1: Notch ligand (R&D) (protein, UniProt O00548 18-723, looked up)
Delta-like protein 1: QVWSSGVFELKLQEFVNKKGLLGNRNCCRGGAGPPPCACRTFFRVCLKHYQASVSPEPPCTYGSAVTPVLGVDSFSLPDGGGADSAFSNPIRFPFGFTWPGTFSLIIEALHTDSPDDLATENPERLISRLATQRHLTVGEEWSQDLHSSGRTDLKYSYRFVCDEHYYGEGCSVFCRPRDDAFGHFTCGERGEKVCNPGWKGPYCTEPICLPGCDEQHGFCDKPGECKCRVGWQGRYCDECIRYPGCLHGTCQQPWQCNCQEGWGGLFCNQDLNYCTHHKPCKNGATCTNTGQGSYTCSCRPGYTGATCELGIDECDPSPCKNGGSCTDLENSYSCTCPPGFYGKICELSAMTCADGPCFNGGRCSDSPDGGYSCRCPVGYSGFNCEKKIDYCSSSPCSNGAKCVDLGDAYLCRCQAGFSGRHCDDNVDDCASSPCANGGTCRDGVNDFSCTCPPGYTGRNCSAPVSRCEHAPCHNGATCHERGHRYVCECARGYGGPNCQFLLPELPPGPAVVDLTEKLEGQGGPFPWVAVCAGVILVLMLLLGCAAVVVCVRLRLQKHRPPADPCRGETETMNNLANCQREKDISVSIIGATQIKNTNKKADFHGDHSADKNGFKARYPAVDYNLVQDLKGDDTAVRDAHSKRDTKCQPQGSSGEEKGTPTTLRGGEASERKRPDSGCSTSKDTKYQSVYVISEEKDECVIATEV
B3: Noggin: BMP antagonist, recombinant protein (Peprotech) (protein, UniProt Q13253 28-232, looked up)
Noggin: QHYLHIRPAPSDNLPLVDLIEHPDPIFDPKEKDLNETLLRSLLGGHYDPGFMATSPPEDRPGGGGGAAGGAEDLAELDQLLRQRPSGAMPSEIKGLEFSEGLAQGKKQRLSKKLRRKLQMWLWSQTFCPVLYAWNDLGSRFWPRYVKVGSCFSKRSCSVPEGMVCKPSKSVHLTVLRWRCQRRGGQRCGWIPIQYPIISECKCSC

Experiments:
[1] = system: ALK 5, 4, 7; conditions: Tojo et al. 2005; cited from earlier work
[2] = system: H9 hESCs; assay: Feeder-free neural induction on Matrigel, PAX6/Nestin by FACS and immunostaining; assay type: cell-based, human; conditions: for total H9 hESCs differentiated into PAX6+/Nestin+ cells (FACS): 10 μM inhibitor together with 100 ng/mL MK+DAP
[3] = system: ERK1/2; assay: Western blot of phospho-ERK1/2 (MAPK pathway); assay type: cell-based, human; conditions: 100 ng/mL, 24 hr
Text: (§1) The signal transduction pathway(s) involved in this highly efficient neural conversion was addressed. The PI3K/MAPK pathways were focused on since MK-induced activation of both pathways has been reported (Kadomatsu et al. Cancer Lett. 204:127-143, 2004; Stoica et al. JBC 277:35990-35998, 2002). Since both pathways are already active in undifferentiated hESCs and necessary for their growth (Bendall et al. Nature 448:1015-1021, 2007; Vallier et al. J. Cell. Sci. 118:4495-4509, 2005; Xu et al. Nat. Methods 2:185-190, 2005), cells were exposed to high concentrations (100 ng/mL) of MK, IGF-1, and FGF-2 for 24 hr and phosphorylation levels of AKT and ERK1/2 were compared (FIG. 4a).
(§2) Cell lysates were prepared in RIPA buffer containing protease and phosphatase inhibitors (Pierce). 4-12% gradient gels (NuPage) were used with Invitrogen's SureLock Mini-Cell and gel-to-membrane transfer was performed with the XCell Blot Module (Invitrogen). The following primary antibodies were used: goat MK (R&D), mouse and rabbit GAPDH (1:1000, Santa Cruz), p-AKT 5473 and total AKT (1:1000, Cell Signaling Technologies), phospho-ERK1/2 and total ERK1/2 (1:1000, Cell Signaling Technologies). The following secondary antibodies were used: donkey anti-mouse Alexa 680 (Invitrogen), donkey anti-rabbit Alexa 680, donkey anti-rabit 800 (Rockland), donkey anti-mouse 800. Western Blots were imaged using the Odyssey Infrared Imaging System (LI-COR).

[4] = system: AKT; assay: Western blot of AKT phosphorylation at Serine 473 (PI3K pathway); assay type: cell-based, human; conditions: 100 ng/mL, 24 hr
Text: as §1
as §2, with “Western Blots were imaged using the Odyssey Infrared Imaging System (LI-COR).” left out

[5] = system: hESCs (H9 cells); assay: Neural tube-like (NTL) structure formation by hESC colonies grown on HS27 fibroblasts; assay type: cell-based, human; conditions: for NTL structures observed: MK applied together with FGF-2, or MK replaced by the factor
Protocol: To confirm that increased MK levels correlate with differentiation, EBs from hESCs and HS27-iPSCs were generated and quantitatively analyzed MK expression. […] To test if exogenously added MK may display neural-inducing activities, hESCs were cultured in the presence of recombinant MK protein using two different assays. First, manually passaged hESCs (H9 cells) were plated on HS27 fibroblasts and grown in the presence of 100 ng/mL MK. […] These NTLs expressed the typical neuroectodermal markers PAX6 and Nestin (FIG. 1d) and, when single NTLs were manually picked under microscopic guidance and attached to laminin-coated dishes, neuronal cells started migrating out from these structures (FIG. 9). […] Second, MK-induced differentiation was investigated under feeder-free conditions. Manually passaged H9-hESCs cells were plated on Matrigel and grown in 100 ng/mL MK for 6 days.
Human ESC lines H1, H9, H14, BG02, HSF-6, and HUES13 were cultured on matrigel (BD) or Geltrex (Invitrogen) in the presence of MEF-CM (DMEM/F12, 20% Knockout Serum Replacement, non-essential amino acids, 2-mercaptoethanol). In some experiments, hESCs and iPSCs were cultured in mTeSR medium (Stem Cell Technologies). Neural cells were grown in N2B27 supplement (Gibco). The following reagents were used: MK (Millipore), FGF-2 (NIH/NCI), BDNF (Peprotech), GDNF (Peprotech), FGF-8 (Peprotech), SHH (Peprotech and R&D Systems), Noggin (Peprotech), IGF-1 (Peprotech), DLL1, DLL4, Jagged1 (R&D), all-trans RA (Sigma), Forskolin (Sigma), A 81-01 (Tocris), Dorsomorphin (Sigma), PNU-74654 (Sigma), Rapamycin (Sigma), LY294002 (Tocris), U0126 (Tocris).
Cells were fixed with 4% paraformaldehyde and stained with following antibodies: anti-mouse OCT-4 (1:200, Santa Cruz, C-10), rabbit Nanog (1:200, Santa Cruz, H-155), mouse TRA 1-81 (1:200, Millipore), alpha-Fetoprotein (1:50, Santa Cruz, AFP-11), goat MK (1:100, R&D Systems), goat SOX17 (1:100, R&D), goat Brachyury (1:100, R&D), PAX6 (1:300, Covance), mouse and rabbit Tuj1 (1:500, Covance), goat OTX2 (1:1000, Neuromics), mouse Nestin (1:400, Millipore), rabbit OLIG2 (1:50, Santa Cruz, H-68), mouse HB9 (1:50, 81.5C10, Developmental Studies Hybridoma Bank), rabbit GFAP (1:1000, DAKO), rabbit and sheep TH (1:500, Pel-Freez), rabbit PTPz (1:50, Santa Cruz), goat ALK (1:50, Santa Cruz). Light-microscopic immunostaining for PAX6 with the DAB method was performed according to the manufacturer (Vector).

Molecule | MAPK activation (ERK1/2 phosphorylation level) [3] | NTL structures observed [5] | other results
Cc1cccc(-c2nn(C(=S)Nc3ccccc3)cc2-c2ccnc3ccccc23)n1 [A81-01] |  |  | potency relative to SB431542 (another inhibitor of ALK 5, 4, 7) [1]: more potent
O=c1cc(N2CCOCC2)oc2c(-c3ccccc3)cccc12 [LY294002] |  |  | total H9 hESCs differentiated into PAX6+/Nestin+ cells (FACS) [2]: ~95%
N#CC(=C(/N)Sc1ccccc1N)/C(C#N)=C(\N)Sc1ccccc1N [U0126] |  |  | total H9 hESCs differentiated into PAX6+/Nestin+ cells (FACS) [2]: ~95%; PAX6 expression / neuralization in MK+DAP-treated hESC cultures ([2]; 40 μM inhibitor together with 100 ng/mL MK+DAP): dramatically reduced; also recorded: disruption of neuralization
FGF-2: fibroblast growth factor 2 (NIH/NCI) | significantly stronger activation |  | 
IGF-1: insulin-like growth factor 1 (Peprotech) | moderate level | never observed | signaling through PI3K pathway (phosphorylation level of AKT) [4]: signal through both the PI3K pathway and the MAPK pathway
Jagged1: Notch ligand (R&D) |  | never observed | 
delta-like 4: Notch ligand (R&D) |  | never observed | 
B1 | moderate level |  | total cells differentiated into PAX6+ cells ([2]; 100 ng/mL MK alone, Matrigel, feeder-free, 6 days, FACS and immunostainings): 20-40%; signaling through PI3K pathway (phosphorylation level of AKT) [4]: signal through both the PI3K pathway and the MAPK pathway; solitary growing hESC colonies directly differentiated into neural tube-like (NTL) structures ([5]; 100 ng/mL MK, within 6-8 days): 5-10%
B2 |  | never observed | 
B3 |  | never observed | 
